Measurements: patent publication US8828442B2, “Pharmaceutical solid dispersions” (Bend Research, Inc., priority 1999, dated 2014)

Test: In vitro dissolution test in Model Fasted Duodenal (MFD) solution, before storage
Assay type: physicochemical
Conditions: before aging; for AUC90 fresh: AUC from 0 to 90 minutes, MFD solution; for MDC fresh: maximum drug concentration, MFD solution pH 6.5, 37° C.
Description: The concentration of dissolved drug is typically measured as a function of time by sampling the drug and plotting concentration vs. time so that the MDC can be ascertained. To avoid drug particulates which would give an erroneous determination, the test solution is either filtered or centrifuged. “Dissolved drug” is typically taken as that material that either passes a 0.45 μm syringe filter or, alternatively, the material that remains in the supernatant following centrifugation. Filtration can be conducted using a 13 mm, 0.45 μm polyvinylidine difluoride syringe filter sold by Scientific Resources under the trademark TITAN®. Centrifugation is typically carried out in a polypropylene microcentrifuge tube by centrifuging at 13,000 G for 60 seconds. Other similar filtration or centrifugation methods can be employed and useful results obtained. For example, using other types of microfilters may yield values somewhat higher or lower (±10-40%) than that obtained with the filter specified above but will still allow identification of preferred dispersions. It is recognized that this definition of “dissolved drug” encompasses not only monomeric solvated drug molecules but also a wide range of species such as polymer/drug assemblies that have submicron dimensions such as drug aggregates, aggregates of mixtures of polymer and drug, micelles, polymeric micelles, colloidal particles or nanocrystals, polymer/drug complexes, and other such drug-containing species that are present in the filtrate or supernatant in the specified dissolution test.
Dissolution performance of the material from Example 1, before exposure to increased temperature and humidity, was measured as follows. In a 37° C. controlled temperature box, 3.0 mg of the material of Example 1 was inserted into a polypropylene microcentrifuge tube (Sorenson Bioscience Inc.). The theoretical MDC in solution (i.e., if all drug dissolved) was 490 μg/ml [(3.0 mg×1000 μg/mg)×(0.33 g drug/g dispersion)×0.90 salt factor×0.98 drug assay/1.8 ml=490 μg/ml]. […] The tube was closed and a timer was started. […] Each sample was centrifuged, sampled and resuspended as described, then diluted with 250 μL HPLC grade methanol (Burdick & Jackson) and the concentration of drug was determined by HPLC. Samples were taken after 4, 10, 20, 40, and 90 minutes, analyzed, and drug concentrations for each time point were calculated. […]
In addition, the AUC90 value was calculated for Example 1. […] AUC between two individual time points within the curve was determined as follows. […] AUC90 is determined by calculating the sum of these areas defined by the drug concentrations observed at t1 and t2 equal to: 0 and 4 minutes, 4 and 10 minutes, 10 and 20 minutes, 20 and 40 minutes, and 40 and 90 minutes.

## CCC(CC)Nc1cc(C)nc(Oc2c(C)cc(C)cc2C)c1C.Cl [Comparative Example C9, [3,6-Dimethyl-2-(2,4,6-trimethyl-phenoxy)-pyridin-4-yl]-(1-ethyl-propyl)-amine hydrogen chloride]
  AUC90 fresh: 165000 ng·h/mL
  MDC fresh: 135 µg/mL

## CCC(CC)Nc1cc(C)nc(Oc2c(C)cc(C)cc2C)c1C [Comparative Example C10, [3,6-Dimethyl-2-(2,4,6-trimethyl-phenoxy)-pyridin-4-yl]-(1-ethyl-propyl)-amine]
  AUC90 fresh: 23300 ng·h/mL
  MDC fresh: 22 µg/mL
